This is an account of results in PubChem BioAssay (NCI).

What all share (assay): growth of human tumour cells (NCI), 48 h
Assay [1] deals with PC-3 prostate.
Assay [2] deals with HCC-2998 colon.
Assay [3] deals with SF-539 CNS.
The subject of assay [4] is MOLT-4 leukemia.
Assay [5] concerns MDA-MB-231 breast.
Assay [6] has as its system M14 melanoma.
Assay [7] deals with IGROV1 ovarian.
The subject of assay [8] is 786-0 renal.
Assay [9] deals with SR leukemia.
The test system of assay [10] is HOP-92 NSCLC.

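These data come from cells grown in 96-well plates and exposed to compound for 48 hours at five concentrations. At the GI50, growth is halved. TGI: concentration producing complete growth inhibition.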 Some results are limits rather than exact numbers.

For the compound `O=C(O)c1nc(NCc2nc3cc(Cl)ccc3o2)n[nH]1`, the GI50 in assay [1], in [2], in [3], in [4], in assay [5] and in assay [6] was above 100 µM each time. For the same compound, the GI50 in [7], in assay [8] and in assay [9] was above 100 µM each time. Besides, the TGI in assay [1], in assay [2], in assay [3], in [4], in [5] and in [6] was above 100 µM in each case. Besides, the TGI in [7], in assay [8] and in assay [9] was above 100 µM throughout.
`COC(=O)C1=CO[C@@H](OC2CC(CO)C(O)C(O)C2O)[C@@H]2[C@@H](C)[C@@H](OC(=O)/C=C/c3ccccc3)[C@@H](O)[C@H]12` (stereo partly specified) (tested in a mixture with another compound): the TGI in assay [2], in assay [3], in assay [4], in assay [10], in assay [6] and in [7] was above 100 µM throughout. Further, the TGI in assay [8] and in [9] was above 100 µM each time.
Regarding `Clc1ccc(-c2cn3ccnc3c(-c3ccc(Cl)cc3)n2)cc1`, the GI50 in [1] was 19.6 µM; in assay [3], 26.2 µM; in assay [4], 0.462 µM; in assay [5], 7.04 µM; in assay [10] it was 15.1 µM; in assay [6], 13.7 µM. Further, the GI50 was 21 µM in [7] and 29.5 µM in assay [8]. Also, the TGI in assay [1] is above 100 µM; in assay [3] it was above 100 µM; in assay [4], above 100 µM; in [5], 47 µM; in [10], above 100 µM; in [6], 84.7 µM. The TGI in [7] was above 100 µM; in assay [8], above 100 µM; in assay [9], 4.02 µM.
As to `O=C(/C=C/c1ccccc1)Oc1cccc2cccnc12`, the TGI in assay [2] is above 100 µM; in assay [3] it was 30.5 µM; in assay [4], above 51.1 µM; in [10], 81.6 µM; in [6] it was 14.8 µM; in [7] it was 32.4 µM. Also, the TGI in assay [8] and in [9] was above 100 µM throughout.
As to `CC1=C(C(=O)Nc2ccccc2C)C(c2ccc(Cl)cc2)C(C(=O)Nc2ccccc2C)=C(C)N1`, the TGI in assay [2], in [3], in assay [4], in assay [10], in assay [6] and in [7] was above 100 µM each time. Further, the TGI in [8] and in assay [9] was above 100 µM each time.
As for `C=C(c1ccccc1)C1(O)CCCCC1N` (stereo unspecified), the TGI in [2], in assay [3], in [4], in [10], in assay [6] and in assay [7] was above 100 µM in each case. The TGI was above 100 µM in [8] and 72.8 µM in assay [9].
For the compound `CN1CCN(C(=S)N(C)C(=O)c2ccco2)CC1`, the TGI in assay [2], in assay [4], in assay [5], in assay [10], in assay [6] and in [7] was above 100 µM in each case. Also, the TGI in assay [8] and in assay [9] was above 100 µM in each case.
Take `COC(=O)/C(=N\NC(C)(C)C)C(C(=O)OC)C(=O)C(=O)Nc1cc(Cl)ccc1Cl` (stereo unspecified): the TGI in [2], in [3], in [4], in [10], in assay [6] and in assay [7] was above 100 µM each time. Moreover, the TGI in assay [8] and in [9] was above 100 µM in each case.
Regarding `O=C(COc1ccccc1Cl)N1N=C(c2ccc(Cl)cc2)CC1(O)c1ccccc1` (stereo unspecified), the TGI in assay [2], in assay [3], in assay [4], in assay [10], in [6] and in assay [7] was above 100 µM each time. The TGI in assay [8] and in assay [9] was above 100 µM in each case.
For `COc1cccc(-c2nc3cc(NC(=O)c4ccc(Cl)c(C#N)c4)ccc3o2)c1`, the GI50 in assay [1] is 2.96 µM; in assay [3], 1.68 µM; in [4], above 100 µM; in [5] it was 3.28 µM; in assay [10] it was 3.01 µM; in assay [7] it was 7.55 µM. The figures for the GI50 in [8] and in [9] were 1.74 µM and 35.1 µM, respectively. The TGI is above 100 µM in assay [1]; 3.37 µM in assay [3]; above 100 µM in [4]; above 100 µM in assay [5]; 8.56 µM in [10]; above 100 µM in [7]. Also, the TGI in assay [8] is 3.33 µM; in assay [9], above 100 µM.
Regarding `NC(=O)CNC(=O)[C@@H]1CC(OCCC(=O)O)CN1C(=O)C1CCCN1C(=O)OCc1ccccc1` (stereo partly specified), the TGI in [1], in assay [4], in assay [5], in assay [6], in assay [7] and in assay [8] was above 100 µM in each case. Besides, the TGI in assay [9] is above 100 µM.
As for `O=S(=O)(/N=c1\scc(-c2ccccc2)n1-c1ccccc1)c1ccc(N2N=C3c4ccccc4CC3C2c2ccc(Cl)cc2)cc1` (stereo unspecified), the GI50 is 19.1 µM in assay [1]; 62.6 µM in [3]; 18.5 µM in assay [4]; 70 µM in assay [5]; 38.6 µM in assay [10]; above 100 µM in assay [6]. The values for the GI50 in assay [7], in [8] and in [9] were 25.7 µM, 32.7 µM and 17.3 µM, respectively. The TGI in [1], in assay [3], in assay [4], in [5], in assay [10] and in [6] was above 100 µM in each case. Further, the TGI was 85.1 µM in assay [7], above 100 µM in assay [8] and 45.9 µM in assay [9].
Consider `O=C1C=CC(=O)c2c1ccc1c3ccccc3n(Cc3ccc([N+](=O)[O-])cc3)c21`, for which the TGI in assay [1] is above 100 µM; in assay [2], above 100 µM; in [3] it was above 100 µM; in assay [4], 54.2 µM; in assay [5] it was above 100 µM; in assay [6] it was above 100 µM. Besides, the TGI was above 100 µM in assay [7], above 100 µM in assay [8] and 37.3 µM in [9].
